Assay results published in US20250221410A1, “SUBSTITUTED 2-C-AZINES AND SALTS THEREOF, AND USE THEREOF AS HERBICIDAL ACTIVE SUBSTANCES” (BAYER AKTIENGESELLSCHAFT, priority 2022, published 2025).

Key:
Format in all cases: in vivo
[1] = system: AMARE: Amaranthus retroflexus; experiment: Pre-emergence herbicide efficacy at 80 g/ha, AMARE; conditions: scored visually after about 3 weeks
Source text: (§1) Seeds of monocotyledonous and dicotyledonous weed plants and crop plants were placed in plastic or organic planting pots and covered with soil. The compounds of the invention, formulated in the form of wettable powders (WP) or as emulsion concentrates (EC), were then applied to the surface of the covering soil as aqueous suspension or emulsion with addition of 0.5% additive at a water application rate equivalent to 600 l/ha. After the treatment, the pots were placed in a greenhouse and kept under good growth conditions for the test plants. After about 3 weeks, the efficacy of the preparations was scored visually in comparison with untreated controls as percentages. For example, 100% activity=the plants have died, 0% activity=like control plants. Tables D1 to D12 below show the effects of selected compounds of the general formula (I) according to Table 1 on various harmful plants and an application rate corresponding to 80 g/ha, which were obtained by the experimental procedure mentioned above.

[2] = system: VERPE: Veronica persica; experiment: Pre-emergence herbicide efficacy at 80 g/ha, VERPE; conditions: scored visually after about 3 weeks
Source text: as §1

[3] = system: AMARE: Amaranthus retroflexus; experiment: Post-emergence herbicidal efficacy at 80 g/ha, AMARE; conditions: visual rating about 3 weeks after treatment vs untreated controls
Method in brief: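 Activity is a visual score relative to untreated plants, taken about 3 weeks after treatment, where 100% means plant death and 0% means no difference from control. Weeds in sandy loam were sprayed at the one-leaf stage with an aqueous WP or EC preparation carrying 0.5% additive at 600 l/ha.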

[4] = system: ABUTH: Abutilon theophrasti; experiment: Pre-emergence herbicide efficacy at 80 g/ha, ABUTH; conditions: scored visually after about 3 weeks
Source text: as §1

[5] = system: POLCO; experiment: Pre-emergence herbicide efficacy at 80 g/ha, POLCO; conditions: Polygonum convolvulus, scored visually after about 3 weeks
Source text: as §1

[6] = system: DIGSA: Digitaria sanguinalis; experiment: Pre-emergence herbicide efficacy at 80 g/ha, DIGSA; conditions: scored visually after about 3 weeks
Source text: as §1

[7] = system: SETVI: Setaria viridis; experiment: Pre-emergence herbicide efficacy at 80 g/ha, SETVI; conditions: scored visually after about 3 weeks
Source text: as §1

[8] = system: MATIN: Matricaria inodora; experiment: Pre-emergence herbicide efficacy at 80 g/ha, MATIN; conditions: scored visually after about 3 weeks
Source text: as §1

SMILES | Pre-emergence efficacy against AMARE in % [1] [%] | Pre-emergence efficacy against VERPE in % [2] [%] | Post-emergence efficacy against AMARE [3] [%] | Pre-emergence efficacy against ABUTH in % [4] [%] | Pre-emergence efficacy against POLCO in % [5] [%] | Pre-emergence efficacy against DIGSA in % [6] [%] | Pre-emergence efficacy against SETVI in % [7] [%] | Pre-emergence efficacy against MATIN in % [8] [%]
Fc1cnc(Cc2ccccc2-c2cc(C(F)F)no2)nc1 [Example 1-135] | 100 | 95 | 100 | 95 | 90 | – | – | –
Fc1cnc(Oc2c(F)cccc2Cc2ncc(Cl)cn2)nc1 [Example 1-152] | 100 | – | 90 | 80 | 90 | 90 | 80 | –
Fc1cnc(Cc2cccc(Cl)c2Oc2ncc(F)cn2)nc1 [Example 1-156] | 100 | – | 80 | 90 | 80 | 90 | – | 80
Cc1cccc(Cc2ncc(Cl)cn2)c1Oc1ncc(Cl)cn1 [Example 1-166] | 95 | – | – | – | 90 | 100 | 80 | –
Fc1ccc(Cc2c(F)cccc2Oc2ncc(Cl)cn2)nc1 [Example 1-194] | 100 | 90 | 98 | – | 90 | 90 | 100 | –
